Test results from patent US6582902B1, “Method for deriving epitopes” (priority 1992, dated 2003).
No end group written: not given here.

Assays:
[1] = system: anti-g10 serum; experiment: Competition for immunoprecipitation of [32P] D10 RNA by anti-g10 serum; type: binding, rabbit; conditions: FIG. 5A (125 mg competitor) and FIG. 5B (g10 peptide 37-444 nM)
Procedure: [^32P] labeled in vitro transcribed D10 RNA or [^35S] labeled in vitro translated g10 fusion protein (g10-U1A) was immunoprecipitated by the anti-g10 serum in the presence of various competitors. D10 RNA and g10 fusion protein bound in the immunoprecipitations were analyzed using denaturing polyacrylamide gels and autoradiography. Panel A: D10 RNA immunoprecipitations with: 1, no competitor; 2, no g10 antiserum added; 3, 125 mg of g10 peptide; 4, 125 mg of bovine serum albumin; 5, 125 mg of control peptide (sequence ETPEEREERRR) (SEQ ID NO:7). Panel B: D10 immunoprecipitations after incubation with increasing amounts of g10 peptide. Lanes: 1, no competitor; 2, 37 nM; 3, 74 nM; 4, 148 nM; 5, 222 nM; 6, 444 nM. Panel C: immunoprecipitations of a g10 containing fusion protein (g10-U1-A) using various competitors. Lanes: 1, no competitor; 2, preimmune rabbit serum; 3, 7.4 nM g10 peptide; 4, 0.7 nM D10 RNA; 5, 0.7 nM unrelated RNA (cDNA encoding loop sequence: ACGTTCGTCG)(SEQ ID NO:8). Panel D: immunoprecipitation of g10-U1A fusion protein after incubation with increasing amounts of D10 RNA. Lanes: 1, no competitor; 2, 0.0175 nM; 3, 0.035 nM; 4, 0.35 nM; 5, 0.7 nM; 6, 1.05 nM.
Competition experiments were performed by addition of the various competitors to [^32P] labeled RNA or [^35S] labeled in vitro translated g10-snRNP-A fusion protein prior to immunoprecipitation. Bound RNAs were analyzed on 6% denaturing acrylamide gels and proteins on 10% SDS-PAGE gels, followed by autoradiography. Antibody-RNA complexes were formed in the presence of competitor g10 peptide or control peptide (FIG. 5A), or with increasing amounts of g10 peptide (FIG. 5B), and uncompeted RNA was recovered by immunoprecipitation.

[2] = system: g10-reactive antibodies (anti-g10 serum); experiment: Competition for immunoprecipitation of [35S] g10-U1-A fusion protein by anti-g10 serum; type: binding, rabbit; conditions: FIG. 3B lanes 8-12; g10 peptide 27.8-750 nM; control peptide 25 mM
Excerpt: (§1) Panel A: Western blot of E. coli extracts containing various U1-A protein constructs. All extracts were produced from induced E. coli cells containing recombinant pET-8c T7 expression vectors in accordance with known techniques. See F. Studier et al., Meth. Enzym. 185, 60-89 (1991). U1-A cDNA was cloned into pET-8c either attached or not attached to the g10 peptide. Lanes: 1, 5 and 9: the pET-8c vector alone; 2, 6 and 10: g10-U1-A protein; 3, 7 and 11: U1-A protein; 4, 8 and 12: total HeLa cell extracts. Lanes 1-4 were probed with pre-immune rabbit serum; lanes 5-8 were probed with anti-g10 serum; and lanes 9-12 were probed with a U1/U2-specific autoimmune serum (patient). EW reacts with U1 RNA, U1-70K (70 kDa), U1-A (31 kDa) and U2-A′ (28.4 kDa) (lane 12). Panel B: Immunoprecipitation and competition analysis of [^35S]-methionine-labeled U1-A and g10-U1-A proteins expressed by in vitro transcription, and subsequent translation in rabbit reticulocyte lysates. Lanes: 1 and 2 show the amount of U1-A and g10-U1-A translation product, respectively, added to each immunoprecipitation reaction; 3: blank; 4 and 5: U1-A and g10-U1-A precipitated with serum EW (reactive with U1-A); 6 and 7: U1-A and g10-U1-A, respectively, precipitated with anti-g10 serum. In lanes 8-12, g10-U1-A was precipitated with anti-g10 serum in the presence of varying amounts of competitors as follows: lanes 8-11 contained the g10 peptide at concentrations of 27.8, 83.3, 250 and 750 nM, respectively; lane 12 contained a control peptide (sequence GKSRGFAFVEFK-amide) (SEQ ID NO:4) at a concentration of 25 mM. The faint lower band in all lanes represents either a degradation product or a premature translation termination product and is seen consistently in U1-A translations.
[^32P] labeled in vitro transcribed D10 RNA or [^35S] labeled in vitro translated g10 fusion protein (g10-U1A) was immunoprecipitated by the anti-g10 serum in the presence of various competitors. D10 RNA and g10 fusion protein bound in the immunoprecipitations were analyzed using denaturing polyacrylamide gels and autoradiography. […]

[3] = system: U1/U2-specific autoimmune serum (patient); experiment: Western blot probed with control anti-U1-A autoimmune serum (patient); type: binding, human; conditions: FIG. 3A lanes 9-12
Excerpt: as §1
(§2) A thirteen amino acid peptide was synthesized representing the amino-terminus of g10-fusion proteins expressed from the Studier T7 expression vectors (F. Studier et al., Meth. Enzym. 185, 60-89 (1991)) (peptide sequence: MASMTGGQQMGRC-carboxyl amide (SEQ ID NO:11), purchased from Multiple Peptide Systems). […]

[4] = system: anti-g10 serum; experiment: Western blot of E. coli / HeLa extracts probed with anti-g10 serum; type: binding, rabbit; conditions: FIG. 3A lanes 5-8; serum diluted 1:2000
Excerpt: as §1, §2

[5] = system: anti-g10 serum; experiment: Immunoprecipitation of [35S]-labeled in vitro translated proteins with anti-g10 serum; type: binding, rabbit; conditions: FIG. 3B lanes 6-7
Excerpt: as §1, with “In lanes 8-12, g10-U1-A was precipitated with anti-g10 serum in the presence of varying amounts of competitors as follows: lanes 8-11 contained the g10 peptide at concentrations of 27.8, 83.3, 250 and 750 nM, respectively; lane 12 contained a control peptide (sequence GKSRGFAFVEFK-amide) (SEQ ID NO:4) at a concentration of 25 mM. The faint lower band in all lanes represents either a degradation product or a premature translation termination product and is seen consistently in U1-A translations.” left out

| inhibition of anti-g10 antibody binding to g10-U1-A by free peptide [2] | Substance | effect of competitor on D10 RNA precipitation by the anti-g10 serum [1] | reactivity with control anti-U1-A serum in Western blot [3] | reactivity with anti-g10 serum in Western blot [4] | precipitation by anti-g10 serum (immunoprecipitation) [5] |
| --- | --- | --- | --- | --- | --- |
| – | ETPEEREERRR [unrelated peptide] | neither bovine serum albumin nor an unrelated peptide showed any effect | – | – | – |
| inhibited | MASMTGGQQMGRC-carboxyl amide (MASMTGGQQMGRC-NH2) [g10 peptide, reference compound] | inhibited RNA binding | – | – | – |
| – | authentic HeLa cell U1-A: endogenous U1-A (31 kDa) in total HeLa cell extracts | – | reacted | not | – |
| – | bovine serum albumin: bovine serum albumin used as control competitor | neither bovine serum albumin nor an unrelated peptide showed any effect | – | – | – |
| – | g10-U1-A fusion protein: g10-tagged U1-snRNP A protein | – | reacted | reacted | precipitated |
| – | recombinant U1-A: U1-A protein expressed without the g10 peptide | – | reacted | not | not |
